Test [1] concerns the target Beta-lactamase (Pseudomonas aeruginosa, UniProt Q8RL90). As to the kind of experiment: (§1) Spectrophotometric Assay: Enzyme activities were measured in the presence of the test inhibitor in spectrophotometric assay.
Test [2] deals with Beta-lactamase (Klebsiella pneumoniae, UniProt Q93LQ9). Described as §1.

The IC50 is the concentration that gives 50% inhibition.

Beta-lactamase (Pseudomonas aeruginosa, UniProt Q8RL90), sequence (Q8RL90 whole entry): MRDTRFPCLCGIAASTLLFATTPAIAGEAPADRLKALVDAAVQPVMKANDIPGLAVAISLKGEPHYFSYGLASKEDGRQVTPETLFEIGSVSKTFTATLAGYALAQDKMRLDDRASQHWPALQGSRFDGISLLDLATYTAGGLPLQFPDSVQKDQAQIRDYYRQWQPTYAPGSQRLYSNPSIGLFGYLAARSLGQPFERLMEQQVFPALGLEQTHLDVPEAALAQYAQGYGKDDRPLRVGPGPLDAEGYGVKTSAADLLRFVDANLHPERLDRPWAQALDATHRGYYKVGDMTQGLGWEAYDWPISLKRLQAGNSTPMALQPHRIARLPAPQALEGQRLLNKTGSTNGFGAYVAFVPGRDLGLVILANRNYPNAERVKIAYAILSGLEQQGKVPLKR
Beta-lactamase (Klebsiella pneumoniae, UniProt Q93LQ9), sequence (Q93LQ9 whole entry): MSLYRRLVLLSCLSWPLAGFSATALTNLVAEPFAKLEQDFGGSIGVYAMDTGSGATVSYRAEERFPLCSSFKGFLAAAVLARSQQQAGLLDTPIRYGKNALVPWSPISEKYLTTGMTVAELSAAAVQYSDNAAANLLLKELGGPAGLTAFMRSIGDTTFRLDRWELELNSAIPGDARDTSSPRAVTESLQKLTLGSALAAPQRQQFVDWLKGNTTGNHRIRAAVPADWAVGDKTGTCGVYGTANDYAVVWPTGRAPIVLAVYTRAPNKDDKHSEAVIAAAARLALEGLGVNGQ

Take `O=C(Nc1ccncc1)[C@@H]1CCC2CN1C(=O)N2OS(=O)(=O)O` (stereo partly drawn): the IC50 on Beta-lactamase [1] came to 6 nM.
Turning to `O=C(Nc1ccc2c(c1)CCNC2)[C@@H]1CCC2CN1C(=O)N2OS(=O)(=O)O` (stereo partly drawn), the half-inhibitory concentration (IC50) on Beta-lactamase [2] is 19 nM.
`O=C(NC1CCCNCC1)[C@@H]1CCC2CN1C(=O)N2OS(=O)(=O)O` (stereo partly drawn): the concentration for half-maximal inhibition (IC50) at Beta-lactamase [1] turned out to be 69 nM.

The values are drawn from ChEMBL document CHEMBL3639375, “Œ=-lactamase inhibitors” (2013).
